Measurements as given in patent publication US20240366571A1, “MODULATORS OF SK4 POTASSIUM CHANNEL AND USES THEREOF” (Ramot at Tel-Aviv University Ltd., priority 2022, published 2024).

Columns and labels:
WT SK4 channels = molecular target: T1, WT SK4 channels (Homo sapiens, UniProt O15554); test: Inside-out macro-patch recording of WT SK4 channels in transfected CHO cells; type: cell-based
T1 construct: expressed in transfected cells; host or cells: CHO cells
Description: Inside-out macro-patch recording: To measure the Ca^2+ concentration dependence for SK4 channel activation, CHO cells were co-transfected with plasmids encoding WT SK4 (1 μg) and WT CaM (1 μg) using the Lipofectamine reagent at a ratio of 1:2. The cells were transfected 48 hours prior to recordings. The patch pipettes were pulled and fire-polished with a MF-900 micro-forge (Narashige) to reach an internal diameter of […]. The resistance of the patch electrodes ranged from 2-3 MΩ. The pipette solution contained 135 mM KCl, 1 mM MgSO4, 0.91 mM CaCl2, and 10 mM HEPES at pH 7.3. The bath solution contained 135 mM KCl, 5 mM EGTA, and 10 mM HEPES at pH 7.3. EGTA was used to titer the different Ca^2+ concentration solutions, calculated using the software by C. Patton of Stanford University (http://maxchelator(dot)stanford(dot)edu/). Currents were recorded by 10 repetitive 1 second duration voltage ramps from −100 mV to +100 mV from a holding potential of 0 mV. The current amplitudes in response to increasing Ca^2+ concentrations were normalized to those obtained at a saturating Ca^2+ concentration (3 μM). Furthermore, to determine the Ca^2+ concentration dependence for activation in the presence of a tested compound, such as the exemplary compound BA6b9 (10 μM), the current amplitudes were normalized to those obtained at large maximal Ca^2+ concentration of 10 μM. For PIP2-dependent activation, PIP2 affinity to the SK4 channel was also examined in the inside-out configuration. The dose-response curve for PIP2 was measured with increasing concentrations of diC8-PIP2 in the presence of 1 μM Ca^2+. The diC8-PIP2 effect on the channel current was measured after complete depletion of the native PIP2 using sonicated poly-L-lysine (PLL) 50 μg/ml and a subsequent 2-minute washout. […] Apparent EC50 values for Ca^2+ or diC8-PIP2 were determined by fitting the data points to a standard dose-response curve Y=100/(1+10^(log EC(50)−X)*HillSlope).
The calcium dependence of the human SK4 K^+ channel in transfected CHO cells was characterized using inside-out macro-patches. The expressed currents were recorded in response to voltage ramps (−100 millivolt (mV) to +100 mV for 1 seconds) and by increasing the free-Ca^2+ concentrations applied to the internal face of the membrane. […]
To examine whether PIP2 is involved in the modulation of the SK4 channel, channel trafficking to the plasma membrane was increased by co-transfecting CHO cells with plasmid DNAs encoding for the channel and for wild type (WT) CaM. The resulting currents were recorded from inside-out macro-patches, where the intracellular solution contained a saturating concentration of 1 μM free-Ca^2+, as shown in FIG. 1B (see, black plot).

SK4 channel mutants [1] = molecular target: T2, SK4 channel mutants (Homo sapiens, UniProt O15554, E22A); test: Whole-cell patch-clamp of SK4 channel mutants; type: cell-based; conditions: read-out: inhibition of SK4 mutant E22A current
T2 construct: expressed in transfected cells; host or cells: CHO cells
Description: (§1) Constructs: For CHO cell transfection, the following were cloned: human SK1, rat SK2, human SK3, and rat calmodulin into the pcDNA3 vector, human SK4 into pEGFP-C1 vector, and PIP4,5-kinase into an IRES-dsRed plasmid. The mutations were introduced using the PCR-based QuikChange™ site-directed mutagenesis (Stratagene®) and were verified by full sequencing of the entire plasmid vector.
(§2) Whole-cell patch-clamp recording: Voltage-clamp recordings were performed using the whole-cell configuration of the patch-clamp technique. Signals were amplified using an […] patch-clamp amplifier (Molecular Devices), sampled at 5 kHz and filtered at 2.4 kHz via a four pole Bessel low pass filter. Data were acquired using pClamp™ 10.5 software in conjunction with an Axon™ DigiData® 1440A interface (Molecular Devices). The patch pipettes were pulled from borosilicate glass (Harvard Apparatus) with a resistance of 3-5 megaohms (MΩ). The intracellular pipette solution contained 130 mM KCl, 5 mM EGTA, 10 mM HEPES, pH 7.3 (adjusted with KOH), and CaCl2 calculated for a final concentration of 1 μM free-Ca^2+, by MAXCHELATOR (WEBMAXC STANDARD) software, with sucrose added to adjust osmolarity to 290 mosM. The external solution (310 mosM) contained 140 mM NaCl, 4 mM KCl, 1.8 mM CaCl2, 1.2 mM MgCl2, 11 mM glucose, and 5.5 mM HEPES adjusted with NaOH to pH 7.3. CHO cells were held at −90 millivolt (mV) and SK4 K^+ currents were activated using a voltage ramp protocol from −100 mV to +60 mV for 150 milliseconds. Electrophysiological data analysis was performed using the Clampfit program (pClamp™ 10.5; Molecular Devices).
(§3) To examine ex-vivo the interactions between BA6b9 and the simulated residues seen in FIG. 5B, residues that are in atomic proximity and are expected to interact with BA6b9 were mutated. Such mutated residues were, for example, R191 and H192 of linker S4-S5, M72 and M76 of the CaM linker as well as L19, E22, Y179, S181, A184, Q187 and R189, which are more distant from BA6b9.

SK4 channel mutants [2] = molecular target: T3, SK4 channel mutants (Homo sapiens, UniProt O15554, H192A); test: Whole-cell patch-clamp of SK4 channel mutants; type: cell-based; conditions: read-out: inhibition of SK4 mutant H192A current
T3 construct: expressed in transfected cells; host or cells: CHO cells
Description: as §1, §2, §3

SK4 channel mutants [3] = molecular target: T4, SK4 channel mutants (Homo sapiens, UniProt O15554, L19W); test: Whole-cell patch-clamp of SK4 channel mutants; type: cell-based; conditions: read-out: inhibition of SK4 mutant L19W current
T4 construct: expressed in transfected cells; host or cells: CHO cells
Description: as §1, §2, §3

SK4 channel mutants [4] = molecular target: T5, SK4 channel mutants (Homo sapiens, UniProt O15554, R191A); test: Whole-cell patch-clamp of SK4 channel mutants; type: cell-based; conditions: read-out: inhibition of SK4 mutant R191A current
T5 construct: expressed in transfected cells; host or cells: CHO cells
Description: as §1, §2, §3

SK4 channel mutants [5] = molecular target: T6, SK4 channel mutants (Homo sapiens, UniProt O15554, R352Q); test: Whole-cell patch-clamp of SK4 channel mutants; type: cell-based; conditions: read-out: inhibition of SK4 mutant R352Q current
T6 construct: expressed in transfected cells; host or cells: CHO cells
Description: as §1, §2, §3

SK4 channel mutants [6] = test: Whole-cell patch-clamp of SK4 channel mutants; type: cell-based, human; conditions: 20 μM
Description: as §1, §2, §3

lowering of the sensitivity of SK4 channels to Ca2+ (WT SK4 channels; 10 μM compound): about 7 fold
inhibition at 10 µM (WT SK4 channels; CHO, 10 μM, 1 μM free-Ca2+, read-out: inhibition of SK4 currents in inside-out macro-patches): 66%
inhibition at 20 µM (SK4 channel mutants [1]): 56%
inhibition at 20 µM (SK4 channel mutants [2]): 16%
inhibition at 20 µM (SK4 channel mutants [3]): 46%
inhibition at 20 µM (SK4 channel mutants [4]): 30%
inhibition at 20 µM (SK4 channel mutants [5]): 31%
SMILES: CCCCCCCn1c(=O)oc2ccccc21 [BA6b9, 3-heptylbenzo[d]oxazol-2(3H)-one]
sensitivity of mutants R352Q, R191A, H192A to inhibition compared to WT SK4 (SK4 channel mutants [6]): significantly less sensitive
